The source of these data is patent US20240360114A1 (SIRONAX LTD., priority 2021, published 2024).

In the first assay the test system is HT-1080 cells. Put plainly: HT-1080 cell viability assay (ferroptosis induced by RSL3, Cell Titer-Glo). The note with it: Homo sapiens, HT-1080, 20 h, ferroptosis inducer RSL3, 20 hours, ferroptosis inhibitory activity, Table 2. It counts as cell-based. A digest of the protocol:
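Cells seeded overnight, then co-treated with RSL3 and compound (3-fold, 10-point dilution, top 1.1 μM) for 20 hours. Viability by CellTiter-Glo luminescence, normalized to untreated controls; EC50 from sigmoidal non-linear regression.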
Consider `CC(C)(C)c1ccc(N[C@H]2CC[C@H](N)CC2)cc1` [Compound 197, (1r,4r)-N1-(4-(tert-butyl)phenyl)cyclohexane-1,4-diamine], for which the EC50 (commonly the concentration needed to bring the measured effect to its halfway point) lay in the range of 0.1 to 100 nM. As for `CC1(C)CCC(c2ccc(NCCCCN3CCCC3)cc2)CC1` [Compound 105, 4-(4,4-dimethylcyclohexyl)-N-(4-(pyrrolidin-1-yl)butyl)aniline], the EC50 was in the range of 0.1 to 100 nM. `Cc1nc(N2CC(C)OC(C)C2)ccc1NC1CCC(CCCN)CC1` (centres unmarked) [Compound 534, N-(4-(3-aminopropyl)cyclohexyl)-6-(2,6-dimethylmorpholino)-2-methylpyridin-3-amine]: the EC50 is 0.1 to 100 nM.

`CC1(C)CCC(c2ccc(NC3CCC(N)(CO)CC3)cc2)CC1` (centres unmarked) [Compound 275A] came in with an EC50 of 0.1 to 100 nM. Same read-out and setting: the figure for `CCc1nc(N2C[C@@H](C)O[C@@H](C)C2)ccc1NC1CC2(CC(N)C2)C1` (stereo partly drawn) [Compound 545, N^2-(6-((2S,6R)-2,6-dimethylmorpholino)-2-ethylpyridin-3-yl)spiro[3.3]heptane-2,6-diamine] is 0.1 to 100 nM; for `NCC1CCC(Nc2ccc3c(c2)CCC3)CC1` (centres unmarked) [Compound 235, N-(4-(aminomethyl)cyclohexyl)-2,3-dihydro-1H-inden-5-amine] it is 0.1 to 100 nM; for `N[C@H]1CC[C@H](CNc2ccc3c(c2)CCC3)CC1` [Compound 308, N-(((1r,4r)-4-aminocyclohexyl)methyl)-2,3-dihydro-1H-inden-5-amine] it is 0.1 to 100 nM. In the case of `Cc1nc(N2C[C@H](C)O[C@@H](C)C2)ccc1NC1CC2(CC(N)C2)C1` (stereo partly drawn) [Compound 479, N2-(6-((2S,6S)-2,6-dimethylmorpholino)-2-methylpyridin-3-yl)spiro[3.3]heptane-2,6-diamine], the concentration giving a half-maximal response (EC50) was 0.1 to 100 nM. `CC(C)(C)c1ccc(NC2C3CC4CC2CC(N)(C4)C3)cc1` (centres unmarked) [Compound 95, N^4-(4-(tert-butyl)phenyl)adamantane-1,4-diamine] had an EC50 of 0.1 to 100 nM. For `O=C1CC(C(=O)NC2CC(Nc3ccc(C4CCCCC4)cc3)C2)CN1` (centres unmarked) [Compound 112, N-(3-((4-cyclohexylphenyl)amino)cyclobutyl)-5-oxopyrrolidine-3-carboxamide], the EC50 was 100 to 1000 nM. Molecule `Cc1nc(N2CCC(C(F)(F)F)CC2)ncc1NC1CCC(N)CC1` (single isomer, unassigned) [Compound 65A, N1-(4-methyl-2-(4-(trifluoromethyl)piperidin-1-yl)pyrimidin-5-yl)cyclohexane-1,4-diamine] returned an EC50 of 0.1 to 100 nM. Same read-out and setting: to `CC(C)C1CCN(c2ncc(NC34CC(N)(C3)C4)cn2)CC1` [Compound 434, N1-(2-(4-isopropylpiperidin-1-yl)pyrimidin-5-yl)bicyclo[1.1.1]pentane-1,3-diamine] belongs 1000 to 10000 nM; to `CC(C)(C)c1cccc(NC2CCC(N)CC2)c1` (single isomer, unassigned) [Compound 153A, N1-(3-(tert-butyl)phenyl)cyclohexane-1,4-diamine], 100 to 1000 nM; to `CC1(C)CCC(c2ccc(NC3CCC(NC(=O)[C@H]4CNC(=O)N4)CC3)cc2)CC1` (single isomer, unassigned) [Compound 156A], 0.1 to 100 nM. The molecule `CCN(CC)c1ccc(NC[C@H]2CC[C@H](N)CC2)cc1` [Compound 436] showed an EC50 of 0.1 to 100 nM. Turning to `CNCC1CCC(Nc2ccc(C3CCC(C)(C)CC3)cc2)CC1` (centres unmarked) [Compound 86, 4-(4,4-dimethylcyclohexyl)-N-(4-((methylamino)methyl)cyclohexyl)aniline], the EC50 was 0.1 to 100 nM. Still for that read-out and setting: to `CC(C)C1CCN(c2ncc(NC3CC4(CC(NC(=O)C(N)=O)C4)C3)cn2)CC1` (centres unmarked) [Compound 403, N1-(6-((2-(4-isopropylpiperidin-1-yl)pyrimidin-5-yl)amino)spiro[3.3]heptan-2-yl)oxalamide] belongs 0.1 to 100 nM. On to `C[C@@H](O)[C@H](N)CNC1CCC(Nc2ccc(C(C)(C)C)cc2)CC1` (stereo partly drawn) [Compound 341, (2R, 3R)-3-amino-4-((4-((4-(tert-butyl)phenyl)amino)cyclohexyl)amino) butan-2-ol], for which the EC50 was in the range of 0.1 to 100 nM.

On to `Cc1nc(N2CC(C)OC(C)C2)ccc1NCC12CC3CC(C1)C(N)C(C3)C2` (centres unmarked) [Compound 516A, N-(((1s,4r)-4-aminoadamantan-1-yl)methyl)-6-(2,6-dimethylmorpholino)-2-methylpyridin-3-amine], for which the EC50 was 0.1 to 100 nM. Turning to `CCOCCN(CCCCOC)CCNc1ccc(C(C)(C)C)cc1` [Compound 256, N1-(4-(tert-butyl)phenyl)-N2-(2-ethoxyethyl)-N2-(4-methoxybutyl) ethane-1,2-diamine], the EC50 was 1000 to 10000 nM. Molecule `CCC(C)(C)c1ccc(NC2CC3(CC(N)C3)C2)cc1` (centres unmarked) [Compound 369, N2-(4-(tert-pentyl)phenyl)spiro[3.3]heptane-2,6-diamine] showed an EC50 of 0.1 to 100 nM. In turn, `NC1CCC(Nc2ccc3ccccc3c2)CC1` (centres unmarked) [Compound 221, N1-(naphthalen-2-yl)cyclohexane-1,4-diamine] registered an EC50 of 0.1 to 100 nM. `Cc1cc(C)c(NC2CCC(N)CC2)c(C)c1` (centres unmarked) [Compound 219, N1-mesitylcyclohexane-1,4-diamine] displayed an EC50 of 1000 to 10000 nM. As to `NC1CCC(Nc2ccc(C3CCOCC3)cc2)CC1` (centres unmarked) [Compound 170, 1-N-(4-(tetrahydro-2H-pyran-+-yl)phenyl)cyclohexane-1,4-diamine], the half-maximal effective concentration (EC50) lay within 1000 to 10000 nM. Same read-out and setting: the figure for `CC(N)C1CCC(Nc2ccc(C3CCC(C)(C)CC3)cc2)CC1` (centres unmarked) [Compound 140, N-(4-(1-aminoethyl)cyclohexyl)-4-(4,4-dimethylcyclohexyl)aniline] is 0.1 to 100 nM; for `CC(C)C1CCN(c2ncc(NC3CC4(CC(O)C4)C3)cn2)CC1` (centres unmarked) [Compound 422, 6-((2-(4-isopropylpiperidin-1-yl)pyrimidin-5-yl)amino)spiro[3.3]heptan-2-ol] it is 0.1 to 100 nM.

The same assay, now with this note: Homo sapiens, HT-1080, 20 h, ferroptosis inducer RSL3, 20 hours, ferroptosis inhibitory activity, Table 3.
In the case of `Cc1cc(NC2CC(N)C2)ccc1N1CC(C)N(CC(F)(F)F)C(C)C1` (centres unmarked) [Compound 612, N1-(4-(3,5-dimethyl-4-(2,2,2-trifluoroethyl)piperazin-1-yl)-3-methylphenyl)cyclobutane-1,3-diamine], the EC50 was in the range of 0.1 to 100 nM. Molecule `Cc1cc(NC(C)(C)C)ccc1NC[C@H]1CC[C@H](N)CC1` [Compound 597, N^1-(((1r,4r)-4-aminocyclohexyl)methyl)-N^4-(tert-butyl)-2-methylbenzene-1,4-diamine] came in with an EC50 of 0.1 to 100 nM.

In turn, `Cc1nc(N2CC(C)N(C(=O)C(F)(F)F)C(C)C2)ccc1NC1CC2CCC(C1)N2` (centres unmarked) [Compound 642, 1-(4-(5-((8-azabicyclo[3.2.1]octan-3-yl)amino)-6-methylpyridin-2-yl)-2,6-dimethylpiperazin-1-yl)-2,2,2-trifluoroethan-1-one] came in with an EC50 of 0.1 to 100 nM. With `Cc1nc(N2CC[Si](C)(C)CC2)ccc1NC1CC2(C1)CC(C(N)=O)C2` (centres unmarked) [Compound 615, 6-((6-(4,4-dimethyl-1,4-azasilinan-1-yl)-2-methylpyridin-3-yl)amino)spiro[3.3]heptane-2-carboxamide], the EC50 lay within 0.1 to 100 nM. On to `CC1CN(c2ccc3cc(NC4CC5(CC(O)C5)C4)ccc3c2)CC(C)N1CC(F)(F)F` (centres unmarked) [Compound 610], for which the EC50 was 0.1 to 100 nM.

The same assay, now with this note: ferroptosis inducer RSL3, 20 hours, ferroptosis inhibitory activity, Table 3.
In turn, `CC1CN(c2ccc3cc(NC4CC(N)C4)ccc3c2)CCO1` (centres unmarked) [Compound 630, N^1-(6-(2-methylmorpholino)naphthalen-2-yl)cyclobutane-1,3-diamine] had an EC50 of 0.1 to 100 nM.
